Test results reported in article PMC5874533 (Scientia Pharmaceutica, 2018).

Experiments:
P-glycoprotein (P-gp) = P-glycoprotein (P-gp) (Homo sapiens, UniProt P08183)
Description: Transport studies. Caco-2 monolayers were rinsed twice with KRB to remove the cell culture medium. Fresh KRB (pH 7.4) was filled into the acceptor compartment and the transport solution (test substance in KRB at pH 7.4) into the donor compartment. The cells were equilibrated for 30 min in a CO2 incubator at 37 °C and stayed there between the sample collection points. After pre-incubation, samples were taken from the donor and acceptor compartment, respectively. The concentration of test compound in the donor compartment was defined as initial donor concentration. At 0 min, 30 min, 60 min, 90 min and 120 min 100 µL samples were drawn from the acceptor compartment. The amount of solution removed was replaced by fresh, pre-warmed KRB. At the final pull point, samples were retrieved from the donor compartment, too. All tests were carried out in triplicate. For studies including the P-glycoprotein (P-gp) inhibitor cyclosporin A and the marker compound for P-gp transport inhibitors, [^3H]-digoxin the substances were applied to both the donor and acceptor compartment in the same concentration. […]
[^3H]-propranolol and [^3H]-digoxin were quantified by liquid scintillation counting. […] After an equilibration period of at least 1 h radiation was measured for 2 min per well in a scintillation counter. The recorded counts in a blank sample were subtracted from the value of each test sample.
Data of the permeability study were calculated using MS Excel (Microsoft, Redmond, WA, USA). Apparent permeability coefficient (Papp) was calculated according to the following equation: Papp=ΔQ 1 1/Δt m0 A VD(cm·s^−1) where ΔQ/Δt is the permeability rate (steady state transport rate) obtained from the profile of the transported mass or radioactivity of substrate versus time (µg or dpm·s^−1). Calculated by the linear regression of time and concentration. A is the area of the exposed cell monolayer (cm^2), m0 is the initial mass or radioactivity of test compound in the donor compartment (µg or dpm), and VD is the buffer volume of donor compartment. […]

Caco-2 cells = experiment: Tolerability of enisamium iodide to Caco-2 cells (TEER); type: cell-based, human; conditions: up to 100 μM, after 2 h of incubation
Description: For this purpose, the cells were incubated with the highest dose supposed for the permeability studies (100 μM). After an incubation period of 120 min at 37 °C the TEER was checked to assess the integrity of the cell monolayers. […] All experiments were performed in triplicate. As a positive control, sodium dodecyl sulfate was used in this experiment.
The TEER was calculated according to TEER= Rc(A)=(Rc+f−Rf)A (Ω·cm^2). where Rc(A) is the electrical resistance of the monolayer with the area A (Ω cm^2); Rc+f is the electrical resistance of the monolayer including the filter (Ω); Rf is the electrical resistance of the filter without cells (Ω); and A is the area of the monolayer (cm^2).

[1] = Solubility study in buffer solutions pH 1.2-7.5 (shake flask, HPLC); type: physicochemical; conditions: for solubility at 48 h: hydrochloric acid/sodium chloride buffer pH 1.2, 37 °C, pH 1.2, 37 °C
Description: Solubility was investigated in four different buffer systems at two temperatures each.
Preparation of buffer solutions:
pH 1.2: 425.0 mL of 0.2 M hydrochloric acid solution, and 250.0 mL 0.2 M sodium chloride solution diluted to 1000 mL with water;
pH 6.8: 250.0 mL of 0.2 M monobasic potassium phosphate solution, 112.0 mL of 0.1 M sodium hydroxide solution diluted to 1000 mL with water;
pH 7.5: 250.0 mL of 0.2 M monobasic potassium phosphate solution, 112.0 mL of 0.1 M sodium hydroxide solution diluted to 1000 mL with water and adjusted to pH 7.5 with 0.1 M sodium hydroxide solution and.
Flow rate of the mobile phase: 0.5 mL min^−1 and a column temperature of 30 °C. The samples were injected at a volume of 10 µL with detection at wavelength 225 nm.
Preparation of the final test solution: Following stirring, the flask was allowed to deposit the excess amount of substance for 5 min. Thereafter, 1.0 mL of the supernatant was transferred into a 50 mL volumetric flask, dissolved in mobile phase, and adjusted to 50.0 mL with the same solvent. For the study at 25 °C, 5.0 mL of this solution was diluted to 20.0 mL with mobile phase. For the study at 37 °C, 5.0 mL of the solution was diluted to 50.0 mL with mobile phase.
10.0 mL of this solution was dissolved to 100.0 mL with mobile phase.

[2] = Caco-2 monolayer transport (permeability) study; type: in vitro ADME, human; conditions: human, Caco-2, pH 7.4, Caco-2, donor concentrations 10–100 μM, KRB pH 7.4; read-out: Permeability coefficient (Papp), apical to basolateral
Description: (§1) Cell culture. For the maintenance culture, Caco-2 cells were incubated at 37 °C, 5% CO2, and 90% relative humidity in 75 cm^2 culture flasks with supplemented Dulbecco's Modified Eagle's Medium (DMEM). The cells were passaged once a week using trypsin/ethylenediaminetetraacetic acid (EDTA) solution. Approximately 10^6 cells were seeded per flask. The culture medium was changed three times a week. For the transport studies, the Caco-2 cells were inoculated at a density of 60,000 cells/cm^2 on Transwell filter inserts and placed into 12-well flat-bottom cluster plates. The inserts (apical compartments) were supplied with 0.5 mL and the outer wells (basal compartments) with 1.5 mL of DMEM culture medium. The cells for the present transport study were cultured at 37 °C, 5% CO2 and 90% relative humidity in DMEM culture medium for 18 days until they formed confluent monolayers (31 passages). The culture medium was replaced every 2-3 days. […] Transport studies. […] All tests were carried out in triplicate. […] Testing of integrity of monolayers. Each batch of monolayer Caco-2 cells was inoculated and cultured under the same conditions on Transwell filter inserts in parallel. Qualification of intactness of the Caco-2 monolayer batches prior to the transport studies was carried out in triplicate for each transport condition using the selected transport markers fluorescein, [^3H]-propranolol and rhodamine 123. […] Mobile phase A consisted of 0.1% formic acid in water and mobile phase B of 0.1% formic acid in acetonitrile. […] The samples were kept at 10 °C and injected at a volume of 20 μL. The triple quad mass spectrometer system (Waters) was used in the positive (ESI^+) electrospray mode at 2.63 kV. […] Fluorescein and rhodamine 123 samples (100 μL) were determined by fluorescence reading. The samples were collected in 96 well microtiter plates. The fluorescence intensity was recorded by exciting the sample with light at 485 nm and measuring the emitted fluorescence at 535 nm. The fluorescence emission of a blank sample (Krebs-Ringer bicarbonate buffer (KRB) solution) was used as baseline.

Caco-2 cell monolayers = experiment: Caco-2 monolayer transport (permeability) study; type: in vitro ADME, human; conditions: Caco-2, 10–100 μM
Description: as §1

Sequence of P-glycoprotein (P-gp) (P08183 whole entry): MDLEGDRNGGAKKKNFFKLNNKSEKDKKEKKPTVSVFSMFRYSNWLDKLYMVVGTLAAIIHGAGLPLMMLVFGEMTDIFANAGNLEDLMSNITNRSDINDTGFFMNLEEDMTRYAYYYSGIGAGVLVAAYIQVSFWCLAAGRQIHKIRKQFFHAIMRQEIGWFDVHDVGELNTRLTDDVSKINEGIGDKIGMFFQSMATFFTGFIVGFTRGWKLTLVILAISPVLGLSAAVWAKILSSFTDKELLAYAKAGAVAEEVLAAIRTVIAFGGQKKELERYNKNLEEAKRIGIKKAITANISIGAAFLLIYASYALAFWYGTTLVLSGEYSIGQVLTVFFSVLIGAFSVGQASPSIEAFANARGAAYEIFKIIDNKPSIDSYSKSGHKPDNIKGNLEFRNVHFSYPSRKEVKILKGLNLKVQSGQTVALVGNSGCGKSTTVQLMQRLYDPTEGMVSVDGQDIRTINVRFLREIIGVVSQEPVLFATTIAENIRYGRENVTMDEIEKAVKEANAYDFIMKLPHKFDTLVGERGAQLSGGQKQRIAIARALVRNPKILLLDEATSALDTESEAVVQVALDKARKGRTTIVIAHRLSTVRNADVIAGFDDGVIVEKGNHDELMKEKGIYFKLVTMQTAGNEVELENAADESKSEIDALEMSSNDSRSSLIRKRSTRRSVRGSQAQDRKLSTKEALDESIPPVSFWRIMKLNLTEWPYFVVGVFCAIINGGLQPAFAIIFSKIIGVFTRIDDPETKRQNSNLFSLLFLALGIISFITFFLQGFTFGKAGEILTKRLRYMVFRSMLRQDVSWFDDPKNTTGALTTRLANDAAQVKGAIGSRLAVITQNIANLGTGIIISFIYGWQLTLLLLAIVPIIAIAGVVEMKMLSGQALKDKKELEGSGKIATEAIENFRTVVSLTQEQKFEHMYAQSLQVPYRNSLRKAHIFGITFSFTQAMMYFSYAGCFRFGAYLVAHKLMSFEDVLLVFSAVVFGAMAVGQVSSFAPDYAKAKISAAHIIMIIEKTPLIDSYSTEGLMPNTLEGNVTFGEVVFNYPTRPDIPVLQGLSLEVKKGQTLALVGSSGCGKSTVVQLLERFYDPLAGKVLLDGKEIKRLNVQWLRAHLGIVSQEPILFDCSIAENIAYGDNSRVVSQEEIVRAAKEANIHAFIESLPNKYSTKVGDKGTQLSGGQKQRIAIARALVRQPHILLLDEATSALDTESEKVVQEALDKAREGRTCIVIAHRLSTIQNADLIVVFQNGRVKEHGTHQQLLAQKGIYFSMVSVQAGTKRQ

C[n+]1ccc(C(=O)NCc2ccccc2)cc1.[I-] [enisamium iodide, 4-(benzylcarbamoyl)-1-methylpyridinium iodide]
P-gp-mediated transport of the substance (P-glycoprotein (P-gp); bi-directional transport 10 μM with/without cyclosporin A 12 μmol·L^−1): not indicative for a P-gp-mediated transport | Fold lower permeation coefficient in ab direction with cyclosporin A compared to without CsA (P-glycoprotein (P-gp); human, Caco-2, 120 min, 10 μM, pH 7.4): more than 3 times | TEER relative to TEER measured in medium without test substance (Caco-2 cells): about 100% | Solubility classification according to the BCS [1]: highly soluble | Amount that can be dissolved in 250 mL of buffer solution ([1]; 37 °C): at least 31.8 g | solubility at 96 h ([1]; four buffer solutions (pH 1.2, 4.5, 6.8, 7.5), 25 °C, pH 1.2, aqueous buffer, thermodynamic from solid, four buffer solutions from pH 1.2 to 7.5, 25 °C): ~60 mg/mL | solubility ([1]; four buffer solutions (pH 1.2, 4.5, 6.8, 7.5), 37 °C, pH 1.2, aqueous buffer, thermodynamic from solid, four buffer solutions from pH 1.2 to 7.5, 37 °C, depending on the pH): 130 to 150 mg/mL | solubility at 96 h ([1]; hydrochloric acid/sodium chloride buffer pH 1.2, 25 °C, pH 1.2, simulated gastric fluid, thermodynamic from solid, pH 1.2, 25 °C, batch 170215): 63.2 mg/mL | solubility at 96 h ([1]; hydrochloric acid/sodium chloride buffer pH 1.2, 25 °C, pH 1.2, simulated gastric fluid, thermodynamic from solid, pH 1.2, 25 °C, batch 180215): 63.5 mg/mL | solubility at 96 h ([1]; hydrochloric acid/sodium chloride buffer pH 1.2, 25 °C, pH 1.2, simulated gastric fluid, thermodynamic from solid, pH 1.2, 25 °C, batch 190315): 63.2 mg/mL | solubility at 96 h ([1]; hydrochloric acid/sodium chloride buffer pH 1.2, 25 °C, pH 1.2, simulated gastric fluid, thermodynamic from solid, pH 1.2, 25 °C, mean of three batches): 63.3 mg/mL | solubility at 48 h ([1]; pH 1.2, simulated gastric fluid, thermodynamic from solid, batch 170215): 152 mg/mL | solubility at 48 h ([1]; pH 1.2, simulated gastric fluid, thermodynamic from solid, batch 180215): 155 mg/mL | solubility at 48 h ([1]; pH 1.2, simulated gastric fluid, thermodynamic from solid, batch 190315): 155 mg/mL | solubility at 48 h ([1]; pH 1.2, simulated gastric fluid, thermodynamic from solid, mean of three batches): 154 mg/mL | solubility at 96 h ([1]; potassium phosphate buffer pH 6.8, 25 °C, pH 6.8, aqueous buffer, thermodynamic from solid, pH 6.8, 25 °C, batch 170215): 60.8 mg/mL | solubility at 96 h ([1]; potassium phosphate buffer pH 6.8, 25 °C, pH 6.8, aqueous buffer, thermodynamic from solid, pH 6.8, 25 °C, batch 180215): 59.5 mg/mL | solubility at 96 h ([1]; potassium phosphate buffer pH 6.8, 25 °C, pH 6.8, aqueous buffer, thermodynamic from solid, pH 6.8, 25 °C, batch 190315): 60.2 mg/mL | solubility at 96 h ([1]; potassium phosphate buffer pH 6.8, 25 °C, pH 6.8, aqueous buffer, thermodynamic from solid, pH 6.8, 25 °C, mean of three batches): 60.2 mg/mL | solubility at 96 h ([1]; potassium phosphate buffer pH 6.8, 37 °C, pH 6.8, aqueous buffer, thermodynamic from solid, pH 6.8, 37 °C, batch 170215): 131 mg/mL | solubility at 96 h ([1]; potassium phosphate buffer pH 6.8, 37 °C, pH 6.8, aqueous buffer, thermodynamic from solid, pH 6.8, 37 °C, batch 180215): 128 mg/mL | solubility at 96 h ([1]; potassium phosphate buffer pH 6.8, 37 °C, pH 6.8, aqueous buffer, thermodynamic from solid, pH 6.8, 37 °C, batch 190315): 131 mg/mL | solubility at 96 h ([1]; potassium phosphate buffer pH 6.8, 37 °C, pH 6.8, aqueous buffer, thermodynamic from solid, pH 6.8, 37 °C, mean of three batches): 130 mg/mL | solubility at 96 h ([1]; potassium phosphate buffer pH 7.5, 25 °C, pH 7.5, aqueous buffer, thermodynamic from solid, pH 7.5, 25 °C, batch 170215): 58.9 mg/mL | solubility at 96 h ([1]; potassium phosphate buffer pH 7.5, 25 °C, pH 7.5, aqueous buffer, thermodynamic from solid, pH 7.5, 25 °C, batch 180215): 59.2 mg/mL | solubility at 96 h ([1]; potassium phosphate buffer pH 7.5, 25 °C, pH 7.5, aqueous buffer, thermodynamic from solid, pH 7.5, 25 °C, batch 190315): 59.1 mg/mL | solubility at 96 h ([1]; potassium phosphate buffer pH 7.5, 25 °C, pH 7.5, aqueous buffer, thermodynamic from solid, pH 7.5, 25 °C, mean of three batches): 59.1 mg/mL | solubility at 96 h ([1]; potassium phosphate buffer pH 7.5, 37 °C, pH 7.5, aqueous buffer, thermodynamic from solid, pH 7.5, 37 °C, batch 170215): 127 mg/mL | solubility at 96 h ([1]; potassium phosphate buffer pH 7.5, 37 °C, pH 7.5, aqueous buffer, thermodynamic from solid, pH 7.5, 37 °C, batch 180215): 130 mg/mL | solubility at 96 h ([1]; potassium phosphate buffer pH 7.5, 37 °C, pH 7.5, aqueous buffer, thermodynamic from solid, pH 7.5, 37 °C, batch 190315): 126 mg/mL | solubility at 96 h ([1]; potassium phosphate buffer pH 7.5, 37 °C, pH 7.5, aqueous buffer, thermodynamic from solid, pH 7.5, 37 °C, mean of three batches): 128 mg/mL | solubility at 96 h ([1]; sodium acetate/acetic acid buffer pH 4.5, 25 °C, pH 4.5, aqueous buffer, thermodynamic from solid, pH 4.5, 25 °C, batch 170215): 59.7 mg/mL | solubility at 96 h ([1]; sodium acetate/acetic acid buffer pH 4.5, 25 °C, pH 4.5, aqueous buffer, thermodynamic from solid, pH 4.5, 25 °C, batch 180215): 59.3 mg/mL | solubility at 96 h ([1]; sodium acetate/acetic acid buffer pH 4.5, 25 °C, pH 4.5, aqueous buffer, thermodynamic from solid, pH 4.5, 25 °C, batch 190315): 60.9 mg/mL | solubility at 96 h ([1]; sodium acetate/acetic acid buffer pH 4.5, 25 °C, pH 4.5, aqueous buffer, thermodynamic from solid, pH 4.5, 25 °C, mean of three batches): 60 mg/mL | solubility at 96 h ([1]; sodium acetate/acetic acid buffer pH 4.5, 37 °C, pH 4.5, aqueous buffer, thermodynamic from solid, pH 4.5, 37 °C, batch 170215): 132 mg/mL | solubility at 96 h ([1]; sodium acetate/acetic acid buffer pH 4.5, 37 °C, pH 4.5, aqueous buffer, thermodynamic from solid, pH 4.5, 37 °C, batch 180215): 133 mg/mL | solubility at 96 h ([1]; sodium acetate/acetic acid buffer pH 4.5, 37 °C, pH 4.5, aqueous buffer, thermodynamic from solid, pH 4.5, 37 °C, batch 190315): 136 mg/mL | solubility at 96 h ([1]; sodium acetate/acetic acid buffer pH 4.5, 37 °C, pH 4.5, aqueous buffer, thermodynamic from solid, pH 4.5, 37 °C, mean of three batches): 134 mg/mL | Papp A→B at 120 min [2]: 0.2 to 0.3 ×10⁻⁶ cm/s | Evidence for active transport (Caco-2 cell monolayers): no evidence for active transport | Permeability classification (Caco-2 cell monolayers): low in vitro permeability
